Measurements from patent US20100298141A1, “SUBSTITUTED PYRIDINE N-OXIDE HERBICIDES” (E. I. DU PONT DE NEMOURS AND COMPANY, priority 2007, published 2010).

Assays:
annual bluegrass = assay: Test F preemergence test; assay type: in vivo, Poa annua; conditions: scale 0 to 100
Outline: (§1)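 Preemergence application to planted seeds, or postemergence to sugarcane plants; compound in non-phytotoxic solvent mix plus surfactant. Greenhouse, 14-21 days. Visual rating vs. controls.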

kochia = assay: Test F preemergence test; assay type: in vivo, Kochia scoparia; conditions: scale 0 to 100
Outline: as §1

johnsongrass = assay: Test F preemergence test; assay type: in vivo, Sorghum halepense; conditions: scale 0 to 100
Outline: as §1

broadleaf signalgrass = assay: Test F preemergence test; assay type: in vivo, Brachiaria platyphylla; conditions: scale 0 to 100
Outline: as §1

purple nutsedge = assay: Test F preemergence test; assay type: in vivo, Cyperus rotundus; conditions: scale 0 to 100
Outline: as §1

Italian ryegrass = assay: Test F preemergence test; assay type: in vivo, Lolium multiflorum; conditions: scale 0 to 100
Outline: as §1

Virginia dayflower = assay: Test F preemergence test; assay type: in vivo, Commelina virginica; conditions: scale 0 to 100
Outline: as §1

goosegrass = assay: Test F preemergence test; assay type: in vivo, Eleusine indica; conditions: scale 0 to 100
Outline: as §1

bermudagrass = assay: Test F preemergence test; assay type: in vivo, Cynodon dactylon; conditions: scale 0 to 100
Outline: as §1

naked crabgrass = assay: Test F preemergence test; assay type: in vivo, Digitaria nuda; conditions: scale 0 to 100
Outline: as §1

Surinam grass = assay: Test F preemergence test; assay type: in vivo, Brachiaria decumbens; conditions: scale 0 to 100
Outline: as §1

morningglory = assay: Test C pre-/postemergence test; assay type: in vivo, Ipomoea coccinea
Outline: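 Seeds were planted and treated preemergence with test chemical in a non-phytotoxic solvent mixture containing surfactant. Postemergence applications of the same formulation went onto plants 2 to 18 cm tall (1- to 4-leaf stage). A dash marks no test result.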

common ragweed = assay: Test F preemergence test; assay type: in vivo, Ambrosia elation; conditions: scale 0 to 100
Outline: as §1

pitted morningglory = assay: Test F preemergence test; assay type: in vivo, Ipomoea lacunosa; conditions: scale 0 to 100
Outline: as §1

large crabgrass = assay: Test F preemergence test; assay type: in vivo, Digitaria sanguinalis; conditions: scale 0 to 100
Outline: as §1

rice = assay: Test C flooded paddy test; assay type: in vivo, Oryza sativa; conditions: Flood
Outline: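 Under a constant 3 cm flood, test compounds went directly into the paddy water. Following 13 to 15 days of greenhouse growth, treated species and controls were compared by eye.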

CC(Oc1c(C[S+]([O-])c2ccc(Cl)c[n+]2[O-])c(C(F)(F)F)nn1C)C(F)(F)F (centres unmarked) [Compound 87]
Plant response rating, Bluegrass (annual bluegrass; 16 g ai/ha, preemergence): 35 | Bluegrass plant response rating (annual bluegrass; 125 g ai/ha, preemergence): 100 | Plant response rating, Bluegrass (annual bluegrass; Preemergence, 62 g ai/ha): 80 | Plant response rating, Bluegrass (annual bluegrass; Preemergence, 31 g ai/ha): 70 | Plant response rating, Kochia (kochia; 16 g ai/ha, preemergence): 0 | Kochia plant response rating (kochia; 125 g ai/ha, preemergence): 50 | Plant response rating, Kochia (kochia; Preemergence, 62 g ai/ha): 50 | Plant response rating, Kochia (kochia; Preemergence, 31 g ai/ha): 0 | Plant response rating, Johnsongrass (johnsongrass; 16 g ai/ha, preemergence): 40 | Johnsongrass plant response rating (johnsongrass; 125 g ai/ha, preemergence): 100 | Plant response rating, Johnsongrass (johnsongrass; Preemergence, 62 g ai/ha): 95 | Plant response rating, Johnsongrass (johnsongrass; Preemergence, 31 g ai/ha): 75 | Plant response rating, Signalgrass (broadleaf signalgrass; 16 g ai/ha, preemergence): 0 | Signalgrass plant response rating (broadleaf signalgrass; 125 g ai/ha, preemergence): 95 | Plant response rating, Signalgrass (broadleaf signalgrass; Preemergence, 62 g ai/ha): 65 | Plant response rating, Signalgrass (broadleaf signalgrass; Preemergence, 31 g ai/ha): 15 | Purple Nutsedge plant response rating (purple nutsedge; 125 g ai/ha, preemergence): 80 | Plant response rating, Purple Nutsedge (purple nutsedge; Preemergence, 62 g ai/ha): 70 | Plant response rating, Purple Nutsedge (purple nutsedge; Preemergence, 31 g ai/ha): 60 | Plant response rating, Ryegrass, Italian (Italian ryegrass; 16 g ai/ha, preemergence): 100 | Ryegrass, Italian plant response rating (Italian ryegrass; 125 g ai/ha, preemergence): 100 | Plant response rating, Ryegrass, Italian (Italian ryegrass; Preemergence, 62 g ai/ha): 100 | Plant response rating, Ryegrass, Italian (Italian ryegrass; Preemergence, 31 g ai/ha): 100 | Plant response rating, Dayflower (Virginia dayflower; 16 g ai/ha, preemergence): 35 | Dayflower plant response rating (Virginia dayflower; 125 g ai/ha, preemergence): 100 | Plant response rating, Dayflower (Virginia dayflower; Preemergence, 62 g ai/ha): 100 | Plant response rating, Dayflower (Virginia dayflower; Preemergence, 31 g ai/ha): 100 | Plant response rating, Goosegrass (goosegrass; 16 g ai/ha, preemergence): 70 | Goosegrass plant response rating (goosegrass; 125 g ai/ha, preemergence): 100 | Plant response rating, Goosegrass (goosegrass; Preemergence, 62 g ai/ha): 95 | Plant response rating, Goosegrass (goosegrass; Preemergence, 31 g ai/ha): 80 | Plant response rating, Bermudagrass (bermudagrass; 16 g ai/ha, preemergence): 25 | Bermudagrass plant response rating (bermudagrass; 125 g ai/ha, preemergence): 95 | Plant response rating, Bermudagrass (bermudagrass; Preemergence, 62 g ai/ha): 70 | Plant response rating, Bermudagrass (bermudagrass; Preemergence, 31 g ai/ha): 60 | Plant response rating, Crabgrass, Naked (naked crabgrass; 16 g ai/ha, preemergence): 95 | Crabgrass, Naked plant response rating (naked crabgrass; 125 g ai/ha, preemergence): 100 | Plant response rating, Crabgrass, Naked (naked crabgrass; Preemergence, 62 g ai/ha): 100 | Plant response rating, Crabgrass, Naked (naked crabgrass; Preemergence, 31 g ai/ha): 100 | Plant response rating, Surinam Grass (Surinam grass; 16 g ai/ha, preemergence): 65 | Surinam Grass plant response rating (Surinam grass; 125 g ai/ha, preemergence): 100 | Plant response rating, Surinam Grass (Surinam grass; Preemergence, 62 g ai/ha): 100 | Plant response rating, Surinam Grass (Surinam grass; Preemergence, 31 g ai/ha): 100 | Morningglory plant response rating (morningglory; 62 g ai/ha, Preemergence, scale 0 to 100): 80 | Morningglory plant response rating (morningglory; 125 g ai/ha, preemergence, scale 0 (no effect) to 100 (complete control)): 80 | Plant response rating, Morningglory (morningglory; Preemergence, 31 g ai/ha, scale 0 to 100 (0 no effect, 100 complete control)): 60 | Morningglory plant response rating (morningglory; preemergence, 250 g ai/ha, scale 0 (no effect) to 100 (complete control)): 95 | Plant response rating, Ragweed (common ragweed; 16 g ai/ha, preemergence): 0 | Ragweed plant response rating (common ragweed; 125 g ai/ha, preemergence): 90 | Plant response rating, Ragweed (common ragweed; Preemergence, 62 g ai/ha): 70 | Plant response rating, Ragweed (common ragweed; Preemergence, 31 g ai/ha): 0 | Plant response rating, Morningglory (pitted morningglory; 16 g ai/ha, preemergence): 0 | Morningglory plant response rating (pitted morningglory; 125 g ai/ha, preemergence): 90 | Plant response rating, Morningglory (pitted morningglory; Preemergence, 62 g ai/ha): 35 | Plant response rating, Morningglory (pitted morningglory; Preemergence, 31 g ai/ha): 0 | Plant response rating, Crabgrass, Large (large crabgrass; 16 g ai/ha, preemergence): 30 | Crabgrass, Large plant response rating (large crabgrass; 125 g ai/ha, preemergence): 100 | Plant response rating, Crabgrass, Large (large crabgrass; Preemergence, 62 g ai/ha): 95 | Plant response rating, Crabgrass, Large (large crabgrass; Preemergence, 31 g ai/ha): 65 | Plant response rating, Rice (rice; 62 g ai/ha, scale 0 to 100 (0 no effect, 100 complete control)): 30 | Plant response rating, Rice (rice; 250 g ai/ha, scale 0 to 100, 0 no effect, 100 complete control, 13 to 15 days): 90

Cc1cc[n+]([O-])c(S(=O)(=O)Cc2c(C(F)(F)F)nn(C)c2OC(F)F)c1 [Compound 2]
Plant response rating, Bluegrass (annual bluegrass; 8 g ai/ha, preemergence): 0 | Bluegrass plant response rating (annual bluegrass; 62 g ai/ha, Preemergence): 25 | Plant response rating, Bluegrass (annual bluegrass; Preemergence, 16 g ai/ha): 0 | Plant response rating, Bluegrass (annual bluegrass; Preemergence, 31 g ai/ha): 15 | Plant response rating, Kochia (kochia; 8 g ai/ha, preemergence): 0 | Kochia plant response rating (kochia; 62 g ai/ha, Preemergence): 75 | Plant response rating, Kochia (kochia; Preemergence, 16 g ai/ha): 0 | Plant response rating, Kochia (kochia; Preemergence, 31 g ai/ha): 0 | Johnsongrass plant response rating (johnsongrass; 62 g ai/ha, Preemergence): 85 | Plant response rating, Johnsongrass (johnsongrass; Preemergence, 31 g ai/ha): 70 | Plant response rating, Signalgrass (broadleaf signalgrass; 8 g ai/ha, preemergence): 0 | Plant response rating, Signalgrass (broadleaf signalgrass; 16 g ai/ha, preemergence): 0 | Signalgrass plant response rating (broadleaf signalgrass; 62 g ai/ha, Preemergence): 50 | Plant response rating, Signalgrass (broadleaf signalgrass; Preemergence, 31 g ai/ha): 0 | Plant response rating, Purple Nutsedge (purple nutsedge; 8 g ai/ha, preemergence): 0 | Purple Nutsedge plant response rating (purple nutsedge; 62 g ai/ha, Preemergence): 100 | Plant response rating, Purple Nutsedge (purple nutsedge; Preemergence, 16 g ai/ha): 15 | Plant response rating, Purple Nutsedge (purple nutsedge; Preemergence, 31 g ai/ha): 70 | Plant response rating, Ryegrass, Italian (Italian ryegrass; 8 g ai/ha, preemergence): 0 | Ryegrass, Italian plant response rating (Italian ryegrass; 62 g ai/ha, Preemergence): 35 | Plant response rating, Ryegrass, Italian (Italian ryegrass; Preemergence, 16 g ai/ha): 0 | Plant response rating, Ryegrass, Italian (Italian ryegrass; Preemergence, 31 g ai/ha): 20 | Plant response rating, Dayflower (Virginia dayflower; 8 g ai/ha, preemergence): 0 | Dayflower plant response rating (Virginia dayflower; 62 g ai/ha, Preemergence): 100 | Plant response rating, Dayflower (Virginia dayflower; Preemergence, 16 g ai/ha): 0 | Plant response rating, Dayflower (Virginia dayflower; Preemergence, 31 g ai/ha): 100 | Plant response rating, Goosegrass (goosegrass; 8 g ai/ha, preemergence): 35 | Goosegrass plant response rating (goosegrass; 62 g ai/ha, Preemergence): 98 | Plant response rating, Goosegrass (goosegrass; Preemergence, 16 g ai/ha): 70 | Plant response rating, Goosegrass (goosegrass; Preemergence, 31 g ai/ha): 90 | Plant response rating, Bermudagrass (bermudagrass; 8 g ai/ha, preemergence): 0 | Bermudagrass plant response rating (bermudagrass; 62 g ai/ha, Preemergence): 90 | Plant response rating, Bermudagrass (bermudagrass; Preemergence, 16 g ai/ha): 25 | Plant response rating, Bermudagrass (bermudagrass; Preemergence, 31 g ai/ha): 90 | Plant response rating, Crabgrass, Naked (naked crabgrass; 8 g ai/ha, preemergence): 0 | Crabgrass, Naked plant response rating (naked crabgrass; 62 g ai/ha, Preemergence): 80 | Plant response rating, Crabgrass, Naked (naked crabgrass; Preemergence, 16 g ai/ha): 35 | Plant response rating, Crabgrass, Naked (naked crabgrass; Preemergence, 31 g ai/ha): 65 | Plant response rating, Surinam Grass (Surinam grass; 8 g ai/ha, preemergence): 0 | Plant response rating, Surinam Grass (Surinam grass; 16 g ai/ha, preemergence): 0 | Surinam Grass plant response rating (Surinam grass; 62 g ai/ha, Preemergence): 100 | Plant response rating, Surinam Grass (Surinam grass; Preemergence, 31 g ai/ha): 60 | Morningglory plant response rating (morningglory; 31 g ai/ha, Preemergence, scale 0 to 100): 85 | Morningglory plant response rating (morningglory; 62 g ai/ha, preemergence, scale 0 (no effect) to 100 (complete control)): 100 | Plant response rating, Morningglory (morningglory; Postemergence, 62 g ai/ha, scale 0 to 100, 0 no effect, 100 complete control): 5 | Plant response rating, Morningglory (morningglory; Postemergence, 125 g ai/ha, scale 0 to 100, 0 no effect, 100 complete control): 5 | Plant response rating, Morningglory (morningglory; Postemergence, 250 g ai/ha, scale 0 to 100, 0 no effect, 100 complete control): 30 | Plant response rating (0 to 100), Morningglory (morningglory; Preemergence, 250 g ai/ha): 100 | Morningglory plant response rating (morningglory; preemergence, 125 g ai/ha, scale 0 (no effect) to 100 (complete control)): 100 | Plant response rating, Morningglory (pitted morningglory; 8 g ai/ha, preemergence): 0 | Morningglory plant response rating (pitted morningglory; 62 g ai/ha, Preemergence): 60 | Plant response rating, Morningglory (pitted morningglory; Preemergence, 16 g ai/ha): 0 | Plant response rating, Morningglory (pitted morningglory; Preemergence, 31 g ai/ha): 15 | Plant response rating, Crabgrass, Large (large crabgrass; 8 g ai/ha, preemergence): 0 | Crabgrass, Large plant response rating (large crabgrass; 62 g ai/ha, Preemergence): 90 | Plant response rating, Crabgrass, Large (large crabgrass; Preemergence, 16 g ai/ha): 0 | Plant response rating, Crabgrass, Large (large crabgrass; Preemergence, 31 g ai/ha): 50 | Plant response rating, Rice (rice; 31 g ai/ha, scale 0 to 100 (0 no effect, 100 complete control)): 0 | Plant response rating, Rice (rice; 62 g ai/ha, scale 0 to 100, 0 no effect, 100 complete control, 13 to 15 days): 10 | Plant response rating, Rice (rice; 125 g ai/ha, scale 0 to 100, 0 no effect, 100 complete control, 13 to 15 days): 45 | Plant response rating, Rice (rice; 250 g ai/ha, scale 0 to 100 (0 no effect, 100 complete control)): 70
